pIC50: −log10 of the molar value. Read-outs that look alike come from different tables or passages of the source.
How the values were obtained:
Type in all cases: biochemical
[1] = target: RSK2 (Homo sapiens (Human), UniProt P51812); experiment: In vitro inhibition of RSK2; settings: in vitro activity on RSK2; where multiple measurements were made, each value is reported
Procedure: (§1) The following Table 3 lists compounds that were tested for inhibition of RSK; the IC50 values are in micromolar units, and refer to inhibition of RSK1 and RSK2, respectively. Where multiple measurements were made, each value is reported.

[2] = target: activated ERK2 (Homo sapiens (Human), UniProt P28482); experiment: Activated ERK2 kinase assay (AlphaScreen, ERKtide peptide phosphorylation); settings: 35 μM ATP, 30 min preincubation, read-out: ERK2 IC50
activated ERK2, sequence (P28482 whole entry): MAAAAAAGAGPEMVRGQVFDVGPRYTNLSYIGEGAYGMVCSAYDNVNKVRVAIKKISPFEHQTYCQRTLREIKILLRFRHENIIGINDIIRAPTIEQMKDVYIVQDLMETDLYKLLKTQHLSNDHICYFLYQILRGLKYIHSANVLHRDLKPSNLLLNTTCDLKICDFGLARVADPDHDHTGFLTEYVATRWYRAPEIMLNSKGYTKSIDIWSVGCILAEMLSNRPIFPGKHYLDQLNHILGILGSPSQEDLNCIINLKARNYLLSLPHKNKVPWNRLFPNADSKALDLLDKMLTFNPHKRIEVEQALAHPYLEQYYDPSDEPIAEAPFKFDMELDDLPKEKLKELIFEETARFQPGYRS

[3] = target: RSK1 (Homo sapiens (Human), UniProt Q15418); experiment: In vitro inhibition of RSK1; settings: in vitro activity on RSK1
RSK1, sequence (Q15418 whole entry, species assumed): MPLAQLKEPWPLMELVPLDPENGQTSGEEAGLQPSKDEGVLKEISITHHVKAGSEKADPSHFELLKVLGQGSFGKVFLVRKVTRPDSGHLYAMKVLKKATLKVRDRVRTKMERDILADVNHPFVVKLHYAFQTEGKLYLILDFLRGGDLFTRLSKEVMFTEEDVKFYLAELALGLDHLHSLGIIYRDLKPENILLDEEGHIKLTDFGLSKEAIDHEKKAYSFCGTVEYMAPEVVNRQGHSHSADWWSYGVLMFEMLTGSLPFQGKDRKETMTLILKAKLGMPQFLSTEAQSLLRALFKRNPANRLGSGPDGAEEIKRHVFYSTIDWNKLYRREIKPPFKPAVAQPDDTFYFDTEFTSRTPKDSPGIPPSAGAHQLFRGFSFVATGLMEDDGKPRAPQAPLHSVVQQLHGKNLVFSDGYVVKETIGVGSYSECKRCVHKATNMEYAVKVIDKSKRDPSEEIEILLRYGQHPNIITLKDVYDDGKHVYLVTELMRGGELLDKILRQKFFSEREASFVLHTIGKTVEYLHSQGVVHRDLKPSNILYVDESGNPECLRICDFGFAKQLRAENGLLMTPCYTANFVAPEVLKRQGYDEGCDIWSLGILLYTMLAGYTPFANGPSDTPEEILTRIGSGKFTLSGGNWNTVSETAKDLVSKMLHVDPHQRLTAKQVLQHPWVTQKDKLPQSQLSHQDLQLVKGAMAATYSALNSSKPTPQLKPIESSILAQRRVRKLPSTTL
Procedure: as §1

[4] = […] ERK2, 200 nM ERKtide peptide

RSK2, sequence (P51812 whole entry, species assumed): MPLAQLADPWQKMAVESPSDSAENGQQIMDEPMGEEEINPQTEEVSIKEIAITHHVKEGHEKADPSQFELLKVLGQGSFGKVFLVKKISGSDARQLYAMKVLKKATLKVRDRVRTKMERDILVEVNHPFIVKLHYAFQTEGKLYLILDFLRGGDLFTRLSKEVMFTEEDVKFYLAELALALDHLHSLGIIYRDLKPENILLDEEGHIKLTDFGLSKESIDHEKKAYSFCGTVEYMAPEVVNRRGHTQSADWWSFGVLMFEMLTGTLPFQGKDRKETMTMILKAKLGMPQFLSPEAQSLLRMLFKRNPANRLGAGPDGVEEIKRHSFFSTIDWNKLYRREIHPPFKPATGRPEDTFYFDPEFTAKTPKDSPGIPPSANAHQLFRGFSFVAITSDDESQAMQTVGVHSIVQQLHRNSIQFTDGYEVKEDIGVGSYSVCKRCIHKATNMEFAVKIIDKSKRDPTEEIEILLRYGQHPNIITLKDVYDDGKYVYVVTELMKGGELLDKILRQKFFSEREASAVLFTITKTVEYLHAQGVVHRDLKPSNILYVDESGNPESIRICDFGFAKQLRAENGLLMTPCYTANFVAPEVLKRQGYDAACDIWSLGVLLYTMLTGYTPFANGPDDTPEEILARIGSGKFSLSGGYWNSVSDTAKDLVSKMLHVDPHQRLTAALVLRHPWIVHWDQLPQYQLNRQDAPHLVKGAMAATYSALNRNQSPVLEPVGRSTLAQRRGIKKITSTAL

SMILES | pIC50 [1] | pIC50 [2, 4] | pIC50 [3] | pIC50 ([2]; 0.25 nM ERK2, 200 nM ERKtide peptide)
CN1CCN(C(=O)N2Cc3nc(Nc4ccccc4)ncc3C2(C)C)CC1 [compound 151, (5,5-dimethyl-2-(phenylamino)-5H-pyrrolo[3,4-d]pyrimidin-6(7H)-yl)(4-methylpiperazin-1-yl)methanone] | 5.93 | 5.25 | 5.79 | 
CC1(C)c2cnc(Nc3ccccc3)nc2CN1C(=O)NCCO [compound 164, N-(2-hydroxyethyl)-5,5-dimethyl-2-(phenylamino)-5H-pyrrolo[3,4-d]pyrimidine-6(7H)-carboxamide] | 4.85 | 4.74 |  | 
CC1(C)c2cnc(Nc3ccccc3)nc2CN1C(=O)NC1CCOCC1 [compound 165, 5,5-dimethyl-2-(phenylamino)-N-(tetrahydro-2H-pyran-4-yl)-5H-pyrrolo[3,4-d]pyrimidine-6(7H)-carboxamide] | 4.82 |  |  | 4.72
CN(C)Cc1ccccc1CNC(=O)N1Cc2nc(Nc3ccccc3)ncc2C1(C)C [compound 166, N-(2-((dimethylamino)methyl)benzyl)-5,5-dimethyl-2-(phenylamino)-5H-pyrrolo[3,4-d]pyrimidine-6(7H)-carboxamide] | 4.79 | 4.35 |  | 

The remaining molecules from weak to strong by pIC50 [1], led by results:

pIC50 [1] | pIC50 [2, 4] | pIC50 [3] | pIC50 ([2]; 0.25 nM ERK2, 200 nM ERKtide peptide) | SMILES
4.86 | 4.08 |  |  | CN1CCC(NC(=O)N2Cc3nc(Nc4ccccc4)ncc3C2(C)C)CC1 [compound 163, 5,5-dimethyl-N-(1-methylpiperidin-4-yl)-2-(phenylamino)-5H-pyrrolo[3,4-d]pyrimidine-6(7H)-carboxamide]
5.09 | 4.79 |  |  | CC1(C)c2cnc(Nc3ccccc3)nc2CN1C(=O)NCc1cocn1 [compound 162, 5,5-dimethyl-N-(oxazol-4-ylmethyl)-2-(phenylamino)-5H-pyrrolo[3,4-d]pyrimidine-6(7H)-carboxamide]
5.09 | 3.90 |  |  | CN(C)[C@@H]1CCCC[C@H]1NC(=O)N1Cc2nc(Nc3ccccc3)ncc2C1(C)C [compound 161, N-((1R,2R)-2-(dimethylamino)cyclohexyl)-5,5-dimethyl-2-(phenylamino)-5H-pyrrolo[3,4-d]pyrimidine-6(7H)-carboxamide]
5.25 | 4.71 |  |  | CC1(C)c2cnc(Nc3ccccc3)nc2CN1C(=O)NCC1CCN(Cc2ccccc2)C1 (stereo not shown) [compound 159, N-((1-benzylpyrrolidin-3-yl)methyl)-5,5-dimethyl-2-(phenylamino)-5H-pyrrolo[3,4-d]pyrimidine-6(7H)-carboxamide]
5.25 | 4.44 |  |  | Cn1cncc1CNC(=O)N1Cc2nc(Nc3ccccc3)ncc2C1(C)C [compound 160, 5,5-dimethyl-N-((1-methyl-1H-imidazol-5-yl)methyl)-2-(phenylamino)-5H-pyrrolo[3,4-d]pyrimidine-6(7H)-carboxamide]

Source: patent US9546173B2 (Novartis AG, priority 2012, dated 2017)
